Legend:
[1] = tested on: SH-SY5Y; assay: Cytotoxicity against human SH-SY5Y cells assessed as cell viability at 10 uM after 48 hrs by MTT assay relative to control; assay type: functional; details: read-out: Activity
[2] = biological target: Nicotinamide phosphoribosyltransferase (Mus musculus, UniProt Q99KQ4); assay: Inhibition of recombinant mouse NAMPT expressed in bacteria assessed as reduction in NADH formation using [14C]NAM as substrate measured for 1 hr by coupled enzymatic assay
[3] = tested on: SH-SY5Y; assay: Cytotoxicity against human SH-SY5Y cells assessed as reduction in cell viability after 48 hrs by MTT assay; assay type: functional, cell-based
[4] = tested on: SH-SY5Y; assay: Cytotoxicity against human SH-SY5Y cells assessed as cell viability at 1 uM after 48 hrs by MTT assay relative to control; assay type: functional; details: read-out: Activity
[5] = biological target: Nicotinamide phosphoribosyltransferase (Homo sapiens, UniProt P43490); assay: Inhibition of NAMPT in human SH-SY5Y cells assessed as NAD depletion incubated for 16 hrs; assay type: cell-based
Nicotinamide phosphoribosyltransferase (Homo sapiens, UniProt P43490), sequence (P43490 whole entry): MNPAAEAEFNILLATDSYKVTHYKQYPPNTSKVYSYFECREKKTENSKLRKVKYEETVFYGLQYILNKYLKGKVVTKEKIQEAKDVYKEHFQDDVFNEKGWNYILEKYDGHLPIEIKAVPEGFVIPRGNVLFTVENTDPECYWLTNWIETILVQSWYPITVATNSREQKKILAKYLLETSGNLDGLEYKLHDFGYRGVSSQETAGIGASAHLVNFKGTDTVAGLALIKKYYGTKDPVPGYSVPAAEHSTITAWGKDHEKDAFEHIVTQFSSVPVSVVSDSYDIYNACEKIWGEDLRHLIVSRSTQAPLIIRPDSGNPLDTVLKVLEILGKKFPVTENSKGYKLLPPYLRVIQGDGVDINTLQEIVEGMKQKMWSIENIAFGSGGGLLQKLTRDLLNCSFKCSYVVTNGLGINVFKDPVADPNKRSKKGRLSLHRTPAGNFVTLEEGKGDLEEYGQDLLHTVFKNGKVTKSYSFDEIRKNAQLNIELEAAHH

[6] = tested on: SH-SY5Y; assay: Cytotoxicity against human SH-SY5Y cells assessed as cell viability at 100 nM after 48 hrs by MTT assay relative to control; assay type: functional; details: read-out: Activity

Nicotinamide phosphoribosyltransferase (Mus musculus, UniProt Q99KQ4), sequence (Q99KQ4 whole entry): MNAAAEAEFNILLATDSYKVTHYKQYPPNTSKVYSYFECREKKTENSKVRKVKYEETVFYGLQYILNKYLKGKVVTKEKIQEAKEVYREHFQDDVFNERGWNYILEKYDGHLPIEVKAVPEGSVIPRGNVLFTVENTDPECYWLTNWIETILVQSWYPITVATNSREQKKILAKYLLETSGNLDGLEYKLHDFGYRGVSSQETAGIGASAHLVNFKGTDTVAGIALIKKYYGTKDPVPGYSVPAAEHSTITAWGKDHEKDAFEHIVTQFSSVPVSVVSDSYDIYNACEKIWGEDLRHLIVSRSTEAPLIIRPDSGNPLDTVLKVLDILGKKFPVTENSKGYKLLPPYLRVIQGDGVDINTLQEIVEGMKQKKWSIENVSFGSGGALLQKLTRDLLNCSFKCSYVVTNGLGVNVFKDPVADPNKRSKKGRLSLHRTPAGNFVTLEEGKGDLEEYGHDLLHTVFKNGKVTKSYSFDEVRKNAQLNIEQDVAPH

SMILES | viability at 10 µM [1] [%] | viability at 1 µM [4] [%] | further results
CNCC(=O)N(CCn1cc(CCCCCCCC(=O)NCCc2cccnc2)nn1)Cc1ccccc1 | 109 | – | –
O=C(CCCCCc1cn(Cc2ccc(-c3ccccc3)cc2)nn1)NCCc1ccncc1 | 100 | – | –
O=C(CCCCCc1cn(-c2ccccc2-c2ccccc2)nn1)NCCc1cccnc1 | 25 | 29.2 | IC50 [2]: 170 nM; EC50 [3]: 680 nM; IC50 [5]: 7.6 nM
O=C(CCCCCCCCc1cn(-c2ccc(N3CCOCC3)cc2)nn1)NCc1cccnc1 | 74 | 100 | –
O=C(CCCCCCCc1cn(-c2ccccc2CO)nn1)NCc1cccnc1 | 96 | – | –
O=C(CCCCCCCc1cn(-c2ccccc2Cc2ccccc2)nn1)NCc1cccnc1 | 94 | – | –
O=C(CCCCCCCc1cn(-c2ccccc2-c2ccccc2)nn1)Nc1cccnc1 | 111 | – | –
O=C(CCCCCCCc1cn(-c2ccccc2Cc2ccccc2)nn1)NCCc1cccnc1 | 101 | – | –
O=C(CCCCCc1cn(-c2ccccc2-c2ccccc2)nn1)NCc1cccnc1 | 12.5 | 13.4 | IC50 [2]: 267 nM; EC50 [3]: 456 nM; IC50 [5]: 1.1 nM
O=C(/C=C/c1cccnc1)NCCCCCc1cn(-c2ccccc2-c2ccccc2)nn1 | – | 32 | IC50 [2]: 114 nM; EC50 [3]: 20 nM; viability at 0.1 µM [6]: 49%; IC50 [5]: 0.0509 nM
O=C(CCCCCCCCc1cn(-c2cnc3ccccc3c2)nn1)NCc1cccnc1 | 29 | 102 | –
O=C(CCCCCCCCc1cn(-c2cnc3ccccc3c2)nn1)Nc1ccncc1 | 53 | 104 | –
O=C(Cc1cccnc1)NCCCCCc1cn(-c2ccccc2-c2ccccc2)nn1 | – | 99 | viability at 0.1 µM [6]: 106%
O=C(CCc1cccnc1)NCCCCCc1cn(-c2ccccc2-c2ccccc2)nn1 | – | 54 | viability at 0.1 µM [6]: 112%
O=C(CCCCCCCCc1cn(-c2ccc(N3CCOCC3)cc2)nn1)Nc1ccncc1 | 28 | 93 | –
O=C(CCCCCCCc1cn(-c2ccc(N3CCOCC3)cc2)nn1)Nc1ccncc1 | 103 | – | –
O=C(CCCCCCc1cn(-c2ccccc2-c2ccccc2)nn1)NCc1cccnc1 | 47 | 98 | –
O=C(CCCCCCCc1cn(-c2ccccc2-c2ccccc2)nn1)Nc1ccncc1 | 32 | 82 | –
O=C(CCCCCCCc1cn(-c2ccccc2Cc2ccccc2)nn1)NCCc1ccncc1 | 99 | – | –
O=C(CCCCCCCc1cn(-c2ccc(CN3CCOCC3)cc2)nn1)Nc1ccncc1 | 125 | – | –
O=C(/C=C/c1cccnc1)NCCCCC1CCN(C(=O)c2ccccc2)CC1 [DAPORINAD] | – | – | IC50 [2]: 61 nM; EC50 [3]: 3.2 nM
